Reference: PubChem BioAssay (NCI)
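GI50 is the concentration that inhibits growth by half. TGI: concentration producing complete growth inhibition.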

Columns and labels:
Assay in all cases: NCI anticancer screen, dose series, 384-well format
EKVX NSCLC = system: EKVX NSCLC
CAKI-1 renal = system: CAKI-1 renal
T-47D breast = system: T-47D breast
TK-10 renal = system: TK-10 renal
NCI-H522 lung = system: NCI-H522 lung
KM12 colon = system: KM12 colon
LOX IMVI melanoma = system: LOX IMVI melanoma
SK-MEL-5 melanoma = system: SK-MEL-5 melanoma
A498 renal = system: A498 renal
SK-MEL-2 melanoma = system: SK-MEL-2 melanoma
COLO 205 colon = system: COLO 205 colon
OVCAR-4 ovarian = system: OVCAR-4 ovarian
MALME-3M melanoma = system: MALME-3M melanoma
PC-3 prostate = system: PC-3 prostate
MDA-MB-231 breast = system: MDA-MB-231 breast
SNB-75 CNS = system: SNB-75 CNS
SK-MEL-28 melanoma = system: SK-MEL-28 melanoma
SF-268 CNS = system: SF-268 CNS
UACC-62 melanoma = system: UACC-62 melanoma
HOP-92 NSCLC = system: HOP-92 NSCLC
UO-31 renal = system: UO-31 renal
SK-OV-3 ovarian = system: SK-OV-3 ovarian
MDA-MB-435 melanoma = system: MDA-MB-435 melanoma
K-562 leukemia = system: K-562 leukemia
HS 578T breast = system: HS 578T breast
NCI-H226 lung = system: NCI-H226 lung
U251 glioblastoma = system: U251 glioblastoma
OVCAR-3 ovarian = system: OVCAR-3 ovarian
A549 NSCLC = system: A549 NSCLC
SW-620 colon = system: SW-620 colon
OVCAR-8 ovarian = system: OVCAR-8 ovarian
NCI-H322M lung = system: NCI-H322M lung
HCC-2998 colon = system: HCC-2998 colon
HCT-116 colon = system: HCT-116 colon
MCF7 breast = system: MCF7 breast
UACC-257 melanoma = system: UACC-257 melanoma
SF-295 CNS = system: SF-295 CNS
SN12C renal = system: SN12C renal
HT29 colon = system: HT29 colon
IGROV1 ovarian = system: IGROV1 ovarian
ACHN renal = system: ACHN renal
HCT-15 colon = system: HCT-15 colon
SNB-19 CNS = system: SNB-19 CNS
OVCAR-5 ovarian = system: OVCAR-5 ovarian

SMILES: Nc1ccn(C2OC(CO)C(O)C2(F)F)c(=O)n1 (configuration not stated)
- GI50 (EKVX NSCLC): 8710 nM
- TGI (EKVX NSCLC): > 100000 nM
- TGI (CAKI-1 renal): 173 nM
- GI50 (T-47D breast): 552 nM
- TGI (T-47D breast): > 100000 nM
- TGI (TK-10 renal): > 100000 nM
- TGI (NCI-H522 lung): 5710 nM
- GI50 (KM12 colon): 15.3 nM
- TGI (KM12 colon): > 100000 nM
- TGI (LOX IMVI melanoma): 33 nM
- TGI (SK-MEL-5 melanoma): < 16.8 nM
- TGI (A498 renal): > 100000 nM
- TGI (SK-MEL-2 melanoma): 15300 nM
- GI50 (COLO 205 colon): 27.7 nM
- TGI (COLO 205 colon): 140 nM
- GI50 (OVCAR-4 ovarian): > 100000 nM
- TGI (OVCAR-4 ovarian): > 100000 nM
- TGI (MALME-3M melanoma): > 22100 nM
- GI50 (PC-3 prostate): > 100000 nM
- TGI (PC-3 prostate): > 100000 nM
- GI50 (MDA-MB-231 breast): 95.7 nM
- GI50 (SNB-75 CNS): < 15.5 nM
- TGI (SNB-75 CNS): < 30.5 nM
- TGI (SK-MEL-28 melanoma): > 100000 nM
- TGI (SF-268 CNS): 18.5 nM
- TGI (UACC-62 melanoma): 19.4 nM
- GI50 (HOP-92 NSCLC): 40.7 nM
- TGI (HOP-92 NSCLC): > 33100 nM
- TGI (UO-31 renal): < 21.3 nM
- GI50 (SK-OV-3 ovarian): 31.8 nM
- TGI (SK-OV-3 ovarian): > 100000 nM
- GI50 (MDA-MB-435 melanoma): 301 nM
- TGI (MDA-MB-435 melanoma): > 100000 nM
- TGI (K-562 leukemia): > 100000 nM
- GI50 (HS 578T breast): < 33.3 nM
- TGI (HS 578T breast): > 40800 nM
- GI50 (NCI-H226 lung): < 16.2 nM
- TGI (NCI-H226 lung): 73.4 nM
- TGI (U251 glioblastoma): 25.2 nM
- TGI (OVCAR-3 ovarian): > 100000 nM
- TGI (A549 NSCLC): > 100000 nM
- GI50 (SW-620 colon): < 15.8 nM
- TGI (SW-620 colon): > 100000 nM
- TGI (OVCAR-8 ovarian): < 33.5 nM
- GI50 (NCI-H322M lung): 1090 nM
- TGI (NCI-H322M lung): > 100000 nM
- TGI (HCC-2998 colon): > 100000 nM
- TGI (HCT-116 colon): > 36900 nM
- TGI (MCF7 breast): > 100000 nM
- GI50 (UACC-257 melanoma): < 18.3 nM
- GI50 (SF-295 CNS): < 14.6 nM
- TGI (SF-295 CNS): 25.4 nM
- GI50 (SN12C renal): 18.5 nM
- TGI (SN12C renal): 64.9 nM
- GI50 (HT29 colon): < 11.2 nM
- TGI (HT29 colon): 3040 nM
- TGI (IGROV1 ovarian): > 100000 nM
- TGI (ACHN renal): < 10.8 nM
- TGI (HCT-15 colon): > 100000 nM
- TGI (SNB-19 CNS): 517 nM
- GI50 (OVCAR-5 ovarian): 48.1 nM
- TGI (OVCAR-5 ovarian): > 100000 nM
